Measurements as given in EP0470795A1, “Process for the manufacture of nitriles” (ZENECA LIMITED, priority 1990, dated 1992).

Tested on: angiotensin II-induced pressor responses
Assay: Test C: antagonism of angiotensin II-induced pressor responses in terminally-anaesthetised or conscious rats
Type: in vivo
Conditions: Rattus norvegicus, iv; i.v. administration; read-out: ED₅₀
Procedure: This in vivo test involves using terminally-anaesthetised or conscious rats in which an arterial catheter has been implanted under anaesthesia for the measurement of changes in blood pressure. The AII antagonistic effects of the test compound following oral or parenteral administration, are assessed against angiotensin II-induced pressor responses. To ensure that the effect is specific, the effect of the test compound on vasopressin-induced pressor responses may also be determined in the same preparation.

Cc1cc(OCc2ccc(-c3ccccc3-c3nnn[nH]3)cc2)c2ccccc2n1.Cl [2-methyl-4-[(2′-(1H-tetrazol-5-yl)biphenyl-4-yl)methoxy]quinoline hydrochloride]
ED50: 0.5 mg/kg
